Test results from PubChem BioAssay (NCI).
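Dose response: 5 concentrations. Exposure: 48 h. Format: 96-well plates. Endpoint: linear interpolation; highest concentration if not reached. The concentration for 50% growth inhibition is given as GI50. TGI: total growth inhibition.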

Tests used:
Test in all cases: NCI anticancer screen, dose series, 48 h
[1] = test system: RPMI-8226 leukemia
[2] = test system: NCI-H226 lung
[3] = test system: MCF7 breast
[4] = test system: A549 NSCLC
[5] = test system: OVCAR-4 ovarian
[6] = test system: NCI-H460 lung
[7] = test system: SF-539 CNS
[8] = test system: OVCAR-8 ovarian
[9] = test system: LOX IMVI melanoma
[10] = test system: MDA-MB-231 breast

Row | SMILES | GI50 [1] | TGI [1] | GI50 [2] | TGI [2] | GI50 [3] | TGI [3] | GI50 [4] | TGI [4] | GI50 [5] | TGI [5] | GI50 [6] | TGI [6] | GI50 [7] | TGI [7] | GI50 [8] | TGI [8] | GI50 [9] | TGI [9] | GI50 [10] | TGI [10]
1 | COc1ccc(N(CC(=O)NCCC[Te]c2ccccc2)C(=O)CNC(=O)OC(C)(C)C)cc1 | 2.4 µM | 7.3 µM | 2.29 µM | 5.36 µM | 2.57 µM | 7.59 µM | 0.521 µM | 2.17 µM | 22.6 µM | > 100 µM | 0.45 µM | 1.85 µM | 2.14 µM | 4.84 µM | 2.41 µM | 6.92 µM | 2.33 µM | 5.76 µM |  | 
2 | N#CC(c1ccccn1)c1nc2ccccc2[nH]1 (stereo not given) |  | > 100 µM |  | > 100 µM |  |  |  | > 100 µM |  | > 100 µM |  | > 100 µM |  |  |  | > 100 µM |  |  |  | 
3 | Cc1ccc(S(=O)(=O)N/N=C(/CC(=O)c2c(C)n([O-])c3ccccc3[n+]2=O)C(=O)Nc2ccccc2C)cc1 |  | > 100 µM |  | > 100 µM |  |  |  | > 100 µM |  | > 100 µM |  | > 100 µM |  | > 100 µM |  |  |  |  |  | 
4 | N#Cc1ccc(C=NC23CC4CC(CC(C4)C2)C3)cc1 |  | > 100 µM |  | > 100 µM |  |  |  | > 100 µM |  | > 100 µM |  | > 100 µM |  | > 100 µM |  | > 100 µM |  | > 100 µM |  | 
5 | O=C(CC1SC(=Nc2ccccc2Cl)NC1=O)Nc1ccc(Cl)cc1Cl (stereo not given) |  | > 100 µM |  | > 100 µM |  |  |  | > 100 µM |  | > 100 µM |  | > 100 µM |  |  |  | > 100 µM |  | > 100 µM |  | 
6 | N#CC(C#N)c1ccc(C(=O)N2CCC[C@H]2CO)cc1 |  | > 100 µM |  |  |  |  |  | > 100 µM |  | > 100 µM |  | > 100 µM |  | > 100 µM |  | > 100 µM |  | > 100 µM |  | 
7 | O=S(=O)(/C=C/C(=C/c1ccccc1)S(=O)(=O)c1ccccc1)c1ccccc1 |  | 3.4 µM |  |  |  |  |  | 4.65 µM |  | 3.07 µM |  | 3.45 µM |  | 3.15 µM |  | 3.08 µM |  | 2.08 µM |  | 
8 | O=c1[nH]cc(F)c(=O)n1C1OC(CO)C(O)C1O (stereo not given) |  | > 100 µM |  | > 100 µM |  |  |  | > 100 µM |  | > 100 µM |  | > 100 µM |  |  |  | > 100 µM |  | > 100 µM |  | 
9 | Cc1ccc(-c2nc([P+](c3ccccc3)(c3ccccc3)c3ccccc3)c(S(=O)(=O)c3ccc(C)cc3)o2)cc1 |  |  | 5.05 µM | 24.6 µM | 1.52 µM | 3.83 µM | 2 µM | 5.14 µM | 1.4 µM | 2.83 µM | 1.64 µM | 3.43 µM | 1.58 µM | 2.92 µM | 1.32 µM | 4.17 µM | 0.328 µM | 1.3 µM | 1.52 µM | 2.93 µM
10 | O=S(=O)(c1cccc(N=C=S)c1)c1cccc(N=C=S)c1 |  | 83.9 µM |  |  |  |  |  | > 100 µM |  |  |  |  |  |  |  |  |  | 31.6 µM |  | 
11 | CCN(CC)CCCCCCNc1cc(OC)cc2cccnc12 | 2.38 µM | 5.45 µM | 21.3 µM | 43.2 µM | 1.74 µM | 3.56 µM | 4.35 µM | 15.4 µM | 2.5 µM | 9.55 µM | 2 µM | 3.79 µM | 1.84 µM | 3.53 µM | 3.04 µM | 8.99 µM | 1.74 µM | 3.31 µM |  | 
12 | NC(=O)c1csc(C2OC(COP(=O)(O)CP(=O)(O)OCC3OC(n4cnc5c(N)ncnc54)C(O)C3O)C(O)C2O)n1 (stereo not given) |  | > 100 µM |  | > 100 µM |  |  |  | > 100 µM |  | > 100 µM |  | > 100 µM |  | > 100 µM |  | > 100 µM |  | > 100 µM |  | 
13 | CCCCCO/N=C\c1c2c(O)c3c(O)c(C)c4c(c3c1O)C(=O)C(C)(O/C=C\C(OC)C(C)C(OC(C)=O)C(C)C(O)C(C)C(O)C(C)/C=C\C=C(\C)C(=O)N2)O4 (stereo not given) | 2.34 µM | 6.69 µM |  |  | 1.71 µM | 3.54 µM | 1.8 µM | 3.39 µM | 2.28 µM | 6.1 µM | 1.51 µM | 2.83 µM | 1.98 µM | 3.86 µM |  |  | 1.65 µM | 3.01 µM | 1.75 µM | 3.2 µM
14 | COc1ccc(-c2nc(/C=C3\SC(=NCc4ccccc4)NC3=O)c3ccccn23)cc1 |  |  | 2.47 µM | 10 µM | 1.55 µM | 3.39 µM | 1.58 µM | 4.25 µM | 1.39 µM | 2.84 µM | 0.666 µM | 2.24 µM | 1.41 µM | 1.99 µM | 2.04 µM | 8.13 µM | 0.964 µM | 2.72 µM | 1.01 µM | 3.84 µM
15 | CCCCCCCCCCCCC(Br)C(=O)NCC(N)=O (stereo not given) |  |  |  | 8.79 µM |  |  |  | 34.7 µM |  | 12.6 µM |  | 34.7 µM |  | 27.7 µM |  | 33.6 µM |  | 42.1 µM |  | 
16 | CC(C)=CC(=O)N(C)C1C2CN3CCC(O2)C13 (stereo not given) |  |  |  | > 100 µM |  |  |  | > 100 µM |  | > 100 µM |  | > 100 µM |  | > 100 µM |  | > 100 µM |  | > 100 µM |  | 
17 | COc1ccc(-c2cc(C(=O)Nc3ccc(C)c(C)c3)nc(NC#N)n2)cc1 |  | > 100 µM |  |  |  |  |  | > 100 µM |  | > 100 µM |  | > 100 µM |  | > 100 µM |  | > 100 µM |  | > 100 µM |  | 
18 | C[N+](C)(C)CC1CCCC1=O (stereo not given) |  | 11.2 µM |  | 34.6 µM |  |  |  | 35.7 µM |  | 1.8 µM |  | 38.9 µM |  | 6.05 µM |  | 4.99 µM |  | 2.33 µM |  | 2.77 µM
19 | COCCNC(=O)C1C(=O)C(=O)N(CCOC)C1=O (stereo not given) |  |  |  | > 100 µM |  |  |  | > 100 µM |  | > 100 µM |  |  |  | > 100 µM |  | > 100 µM |  | > 100 µM |  | 
20 | O=C(O)/C=C/c1nc2ccccc2c(=O)o1 |  | > 100 µM |  | > 100 µM |  |  |  | > 100 µM |  | > 100 µM |  |  |  | > 100 µM |  | > 100 µM |  | > 100 µM |  | 
21 | CCc1cccc(C)c1NC(=O)c1sc2nc3c(cc2c1N)C(=O)CCC3 | 1.06 µM | > 24 µM | 13 µM | > 100 µM | 0.396 µM | > 91.4 µM | 0.652 µM | > 100 µM | 0.78 µM | > 100 µM | 0.371 µM | 14 µM |  |  | 2.21 µM | > 91.7 µM | 0.742 µM | > 100 µM | 1.42 µM | > 100 µM
22 | Cc1cc(C)nc(NS(=O)(=O)c2ccc(Nc3c4ccccc4nc4c(C(=O)Nc5ccc(S(=O)(=O)N=C(N)N)cc5)cccc34)cc2)n1 |  | > 100 µM |  |  |  |  |  | > 100 µM |  | > 100 µM |  | > 100 µM |  | > 100 µM |  | > 100 µM |  | > 100 µM |  | 
